Results taken from the supplement of paper PMC10307832.

How the values were obtained:
Test in all cases: relative viability (nuclei count vs DMSO), 5 days (fraction); higher = more cells survive
Selumetinib + Bortezomib = compound: Cn1cnc2c(F)c(Nc3ccc(Br)cc3Cl)c(C(=O)NOCCO)cc21 [Selumetinib] + CC(C)C[C@H](NC(=O)[C@H](Cc1ccccc1)NC(=O)c1cnccn1)B(O)O [Bortezomib] (partner 0.002 µM)
Outline: (§1)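 Lung cancer cell lines were seeded in 1536-well plates and dosed by pin tool the next day, with either a single drug or a fixed anchor-drug dose combined with five library-drug doses (not always all listed) spaced in √10 steps. Five days later, one step fixed the cells and stained their nuclei (final 0.05% Triton X-100, 1% formaldehyde, 1 ug/ml Hoechst), and nuclei were counted on 4× images. Relative viability is the nuclei count in treated wells divided by the count in vehicle wells, and each value is the median of duplicate plates.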

Venetoclax + Palbociclib = compound: CC1(C)CCC(CN2CCN(c3ccc(C(=O)NS(=O)(=O)c4ccc(NCC5CCOCC5)c([N+](=O)[O-])c4)c(Oc4cnc5[nH]ccc5c4)c3)CC2)=C(c2ccc(Cl)cc2)C1 [Venetoclax] + CC(=O)c1c(C)c2cnc(Nc3ccc(N4CCNCC4)cn3)nc2n(C2CCCC2)c1=O [Palbociclib] (partner 0.5 µM)
Outline: as §1

Selumetinib + Vorinostat = compound: Cn1cnc2c(F)c(Nc3ccc(Br)cc3Cl)c(C(=O)NOCCO)cc21 [Selumetinib] + O=C(CCCCCCC(=O)Nc1ccccc1)NO [Vorinostat] (partner 1 µM)
Outline: as §1

Venetoclax + Crizotinib = compound: CC1(C)CCC(CN2CCN(c3ccc(C(=O)NS(=O)(=O)c4ccc(NCC5CCOCC5)c([N+](=O)[O-])c4)c(Oc4cnc5[nH]ccc5c4)c3)CC2)=C(c2ccc(Cl)cc2)C1 [Venetoclax] + C[C@@H](Oc1cc(-c2cnn(C3CCNCC3)c2)cnc1N)c1c(Cl)ccc(F)c1Cl [Crizotinib] (partner 1 µM)
Outline: as §1

Row | Cell Line | relative viability (Selumetinib + Bortezomib; first compound 0.02 µM) | relative viability (Selumetinib + Bortezomib; first compound 0.06325 µM) | relative viability (Selumetinib + Bortezomib; first compound 0.2 µM) | relative viability (Selumetinib + Bortezomib; first compound 0.6325 µM) | relative viability (Venetoclax + Palbociclib; first compound 0.01 µM) | relative viability (Venetoclax + Palbociclib; first compound 0.03162 µM) | relative viability (Venetoclax + Palbociclib; first compound 0.1 µM) | relative viability (Venetoclax + Palbociclib; first compound 0.3162 µM) | relative viability (Venetoclax + Palbociclib; first compound 1 µM) | relative viability (Selumetinib + Vorinostat; first compound 0.02 µM) | relative viability (Selumetinib + Vorinostat; first compound 0.06325 µM) | relative viability (Selumetinib + Vorinostat; first compound 0.2 µM) | relative viability (Selumetinib + Vorinostat; first compound 0.6325 µM) | relative viability (Venetoclax + Crizotinib; first compound 0.01 µM) | relative viability (Venetoclax + Crizotinib; first compound 0.03162 µM) | relative viability (Venetoclax + Crizotinib; first compound 0.1 µM) | relative viability (Venetoclax + Crizotinib; first compound 0.3162 µM) | relative viability (Venetoclax + Crizotinib; first compound 1 µM)
1 | 201T | 1.11 | 1 | 1.01 | 0.994 | 0.364 | 0.353 | 0.321 | 0.331 | 0.334 | 0.929 | 0.876 | 0.877 | 0.814 | 1.01 | 0.995 | 0.989 | 0.948 | 1.05
2 | A549 | – | – | – | – | – | – | – | – | – | – | – | – | – | 0.707 | 0.668 | 0.886 | 0.649 | 0.61
3 | A-427 | 1.06 | 0.978 | 1.05 | 0.959 | 0.469 | 0.595 | 0.498 | 0.507 | 0.516 | 0.93 | 0.94 | 0.976 | 0.878 | 0.584 | 1.09 | 0.873 | 0.924 | 1
4 | ABC-1 | 0.279 | 0.258 | 0.275 | 0.291 | 0.802 | 0.796 | 0.564 | 0.618 | 0.797 | 1.29 | 0.922 | 0.982 | 1.04 | 0.921 | 0.99 | 1.06 | 1.12 | 1.04
5 | BEN | 0.779 | 0.854 | 0.686 | 0.834 | 0.519 | 0.469 | 0.49 | 0.489 | 0.498 | 0.527 | 0.558 | 0.59 | 0.632 | 0.825 | 0.81 | 0.727 | 0.851 | 0.817
6 | CAL-12T | 0.768 | 0.935 | 0.849 | 0.772 | 0.401 | 0.565 | 0.384 | 0.453 | 0.314 | 0.81 | 0.724 | 0.569 | 0.507 | 0.65 | 0.567 | 0.595 | 0.527 | 0.555
7 | COR-L23 | 1.27 | 0.939 | 1.06 | 0.968 | 0.326 | 0.283 | 0.184 | 0.286 | 0.282 | 0.554 | 0.537 | 0.485 | 0.456 | 0.631 | 0.696 | 0.601 | 0.778 | 0.543
8 | COR-L 105 | 0.813 | 0.477 | 0.609 | 0.567 | 0.414 | 0.399 | 0.384 | 0.365 | 0.413 | 0.779 | 0.829 | 0.598 | 0.47 | 0.717 | 0.638 | 0.669 | 0.738 | 0.698
